Reference: article PMC12951562, “SH2scan: Mapping SH2 Domain-Ligand Binding Selectivity for Inhibitors and Degraders” (Journal of Medicinal Chemistry, 2026)
Read-outs that look alike come from different tables or passages of the source. Non-standard residues stand in square brackets, D forms with d. Residues, ends and D or L forms follow the SMILES beside them. *: point of attachment. pY = N[C@@H](Cc1ccc(OP(=O)(O)O)cc1)C(=O)O; Caffeoyl = O=C(/C=C/c1ccc(O)c(O)c1)*

Experiments:
Experiment in all cases: biochemical
Type in all cases: binding
TNS1 = target: T1, TNS1 (Homo sapiens, UniProt Q9HBL0); conditions: for percent of DMSO vehicle control at 10 µM / remaining activity at 10 µM: read-out: percent of DMSO vehicle control
T1 construct: made in house; host or cells: HEK293 (transient transfection), unpurified extract
T1 sequence (Q9HBL0 whole entry): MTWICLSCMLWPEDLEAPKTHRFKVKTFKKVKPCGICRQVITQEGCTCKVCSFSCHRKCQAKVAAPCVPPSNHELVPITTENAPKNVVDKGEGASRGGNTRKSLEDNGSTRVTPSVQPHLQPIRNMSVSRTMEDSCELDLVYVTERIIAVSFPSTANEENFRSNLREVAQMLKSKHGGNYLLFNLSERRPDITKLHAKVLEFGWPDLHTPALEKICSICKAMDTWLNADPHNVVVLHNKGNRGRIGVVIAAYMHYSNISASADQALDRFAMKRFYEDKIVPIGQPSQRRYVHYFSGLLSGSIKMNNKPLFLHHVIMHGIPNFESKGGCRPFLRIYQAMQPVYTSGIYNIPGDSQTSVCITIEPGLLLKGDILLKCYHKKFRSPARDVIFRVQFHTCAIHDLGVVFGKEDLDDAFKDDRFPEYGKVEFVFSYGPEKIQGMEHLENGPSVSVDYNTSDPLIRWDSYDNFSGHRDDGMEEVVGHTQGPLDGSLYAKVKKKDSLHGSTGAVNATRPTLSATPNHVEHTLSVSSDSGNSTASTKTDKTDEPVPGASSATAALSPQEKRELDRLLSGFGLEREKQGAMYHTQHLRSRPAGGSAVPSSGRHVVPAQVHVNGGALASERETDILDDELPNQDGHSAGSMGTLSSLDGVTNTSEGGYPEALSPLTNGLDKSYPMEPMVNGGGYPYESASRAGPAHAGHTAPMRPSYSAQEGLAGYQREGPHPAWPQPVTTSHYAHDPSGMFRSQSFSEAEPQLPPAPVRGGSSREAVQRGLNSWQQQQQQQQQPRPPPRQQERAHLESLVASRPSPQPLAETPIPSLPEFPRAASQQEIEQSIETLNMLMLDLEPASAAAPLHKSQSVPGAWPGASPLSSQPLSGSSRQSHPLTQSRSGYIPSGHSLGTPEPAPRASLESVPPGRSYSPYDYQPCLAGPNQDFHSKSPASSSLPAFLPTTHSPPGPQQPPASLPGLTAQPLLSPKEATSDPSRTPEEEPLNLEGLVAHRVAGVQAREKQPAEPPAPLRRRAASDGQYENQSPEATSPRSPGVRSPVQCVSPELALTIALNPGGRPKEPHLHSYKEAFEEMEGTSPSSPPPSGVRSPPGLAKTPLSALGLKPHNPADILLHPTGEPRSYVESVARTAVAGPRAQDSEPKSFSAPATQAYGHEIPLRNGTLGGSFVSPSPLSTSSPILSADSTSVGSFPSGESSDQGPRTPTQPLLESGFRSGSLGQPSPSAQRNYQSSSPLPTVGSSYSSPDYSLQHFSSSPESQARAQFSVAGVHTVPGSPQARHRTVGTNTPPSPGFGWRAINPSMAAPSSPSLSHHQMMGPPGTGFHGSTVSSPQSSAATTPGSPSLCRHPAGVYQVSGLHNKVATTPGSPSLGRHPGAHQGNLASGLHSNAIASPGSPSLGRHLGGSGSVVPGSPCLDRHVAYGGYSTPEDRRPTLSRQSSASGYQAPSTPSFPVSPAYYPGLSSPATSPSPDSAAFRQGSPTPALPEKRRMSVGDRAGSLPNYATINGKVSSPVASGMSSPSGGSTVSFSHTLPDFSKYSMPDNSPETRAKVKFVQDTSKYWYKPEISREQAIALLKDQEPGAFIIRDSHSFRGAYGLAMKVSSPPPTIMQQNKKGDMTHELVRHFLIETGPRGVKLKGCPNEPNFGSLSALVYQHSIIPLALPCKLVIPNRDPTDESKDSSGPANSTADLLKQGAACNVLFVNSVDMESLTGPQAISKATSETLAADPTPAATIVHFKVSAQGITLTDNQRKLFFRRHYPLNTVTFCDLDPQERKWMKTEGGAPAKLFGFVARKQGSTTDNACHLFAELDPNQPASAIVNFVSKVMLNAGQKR

TNS2 = target: T2, TNS2 (Homo sapiens, UniProt Q63HR2); conditions: for remaining activity at 10 µM: read-out: percent of DMSO vehicle control
T2 construct: made in house; host or cells: HEK293 (transient transfection), unpurified extract
T2 sequence (Q63HR2 1-1409): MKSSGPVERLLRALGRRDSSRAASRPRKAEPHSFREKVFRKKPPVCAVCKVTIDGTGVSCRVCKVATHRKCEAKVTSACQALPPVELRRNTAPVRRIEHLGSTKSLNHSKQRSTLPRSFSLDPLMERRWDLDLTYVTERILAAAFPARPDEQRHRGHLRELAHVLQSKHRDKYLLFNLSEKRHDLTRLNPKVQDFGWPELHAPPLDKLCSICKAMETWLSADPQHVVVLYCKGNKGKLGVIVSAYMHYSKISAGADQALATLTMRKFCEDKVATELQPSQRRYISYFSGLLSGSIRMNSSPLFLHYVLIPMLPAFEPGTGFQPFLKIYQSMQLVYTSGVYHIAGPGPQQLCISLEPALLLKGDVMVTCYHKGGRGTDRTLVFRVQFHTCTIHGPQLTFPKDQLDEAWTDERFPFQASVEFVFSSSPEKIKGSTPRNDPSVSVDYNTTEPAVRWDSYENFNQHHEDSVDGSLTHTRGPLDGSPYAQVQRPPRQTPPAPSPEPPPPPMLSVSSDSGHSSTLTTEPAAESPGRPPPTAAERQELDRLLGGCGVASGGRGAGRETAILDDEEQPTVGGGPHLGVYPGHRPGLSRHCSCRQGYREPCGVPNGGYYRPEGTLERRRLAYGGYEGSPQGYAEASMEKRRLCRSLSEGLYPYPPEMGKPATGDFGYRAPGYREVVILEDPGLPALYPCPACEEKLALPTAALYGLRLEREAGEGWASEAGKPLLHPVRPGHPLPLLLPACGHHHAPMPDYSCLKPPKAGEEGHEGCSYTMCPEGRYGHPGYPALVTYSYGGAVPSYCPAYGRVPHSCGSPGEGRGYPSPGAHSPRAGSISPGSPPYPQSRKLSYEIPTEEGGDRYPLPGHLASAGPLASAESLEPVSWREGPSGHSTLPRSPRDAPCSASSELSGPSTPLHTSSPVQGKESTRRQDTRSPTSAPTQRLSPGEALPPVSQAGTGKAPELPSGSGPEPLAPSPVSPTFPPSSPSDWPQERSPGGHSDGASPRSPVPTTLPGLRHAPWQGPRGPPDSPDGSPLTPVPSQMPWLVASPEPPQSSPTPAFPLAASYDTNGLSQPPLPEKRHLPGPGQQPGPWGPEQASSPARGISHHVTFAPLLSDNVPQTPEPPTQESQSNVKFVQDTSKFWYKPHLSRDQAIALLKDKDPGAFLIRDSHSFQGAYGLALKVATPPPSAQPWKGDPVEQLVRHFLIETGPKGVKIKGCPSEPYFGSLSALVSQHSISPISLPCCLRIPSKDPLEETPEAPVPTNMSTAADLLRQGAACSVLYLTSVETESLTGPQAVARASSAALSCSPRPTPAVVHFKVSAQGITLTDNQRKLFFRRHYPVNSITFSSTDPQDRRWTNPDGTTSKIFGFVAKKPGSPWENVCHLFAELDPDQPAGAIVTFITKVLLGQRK

BLNK = target: T3, BLNK (Homo sapiens, UniProt Q8WV28); conditions: for remaining activity at 10 µM: read-out: percent of DMSO vehicle control
T3 construct: the DNA-tagged SH2 domain concentrations used in this study were <0.1 nM; made in house; host or cells: HEK293 (transient transfection; unpurified extract)
T3 sequence (Q8WV28 346-453 limits assumed): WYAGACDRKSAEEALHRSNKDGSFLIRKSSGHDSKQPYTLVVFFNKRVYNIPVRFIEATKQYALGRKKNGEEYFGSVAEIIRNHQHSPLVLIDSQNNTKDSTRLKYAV

GRB7 = target: T4, GRB7 (Homo sapiens, UniProt Q14451); conditions: for percent of DMSO vehicle control at 10 µM / remaining activity at 10 µM: read-out: percent of DMSO vehicle control
T4 construct: the DNA-tagged SH2 domain concentrations used in this study were <0.1 nM; made in house; host or cells: HEK293 (transient transfection; unpurified extract)
T4 sequence (Q14451 431-527 limits assumed): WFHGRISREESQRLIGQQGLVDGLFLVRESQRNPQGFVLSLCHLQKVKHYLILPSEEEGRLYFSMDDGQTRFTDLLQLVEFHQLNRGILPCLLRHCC

HCK = target: T5, HCK (Homo sapiens, UniProt P08631); conditions: for remaining activity at 10 µM: read-out: percent of DMSO vehicle control
T5 construct: the DNA-tagged SH2 domain concentrations used in this study were <0.1 nM; made in house; host or cells: HEK293 (transient transfection, unpurified extract)
T5 sequence (P08631 144-241 limits assumed): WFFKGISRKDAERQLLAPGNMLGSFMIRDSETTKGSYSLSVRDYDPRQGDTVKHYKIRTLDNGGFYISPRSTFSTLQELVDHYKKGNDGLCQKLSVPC

LNK (SH2B3) = target: T6, LNK (SH2B3) (Homo sapiens, UniProt Q9UQQ2); conditions: for remaining activity at 10 µM: read-out: percent of DMSO vehicle control
T6 construct: the DNA-tagged SH2 domain concentrations used in this study were <0.1 nM; made in house; host or cells: HEK293 (transient transfection, unpurified extract)
T6 sequence (Q9UQQ2 364-462 limits assumed): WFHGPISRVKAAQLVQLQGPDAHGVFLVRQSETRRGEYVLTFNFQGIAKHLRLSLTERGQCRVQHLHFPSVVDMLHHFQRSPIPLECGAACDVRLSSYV

SOCS1 = target: T7, SOCS1 (Homo sapiens, UniProt O15524); conditions: for remaining activity at 10 µM: read-out: percent of DMSO vehicle control
T7 construct: made in house; host or cells: HEK293 (transient transfection), unpurified extract
T7 sequence (O15524 1-211): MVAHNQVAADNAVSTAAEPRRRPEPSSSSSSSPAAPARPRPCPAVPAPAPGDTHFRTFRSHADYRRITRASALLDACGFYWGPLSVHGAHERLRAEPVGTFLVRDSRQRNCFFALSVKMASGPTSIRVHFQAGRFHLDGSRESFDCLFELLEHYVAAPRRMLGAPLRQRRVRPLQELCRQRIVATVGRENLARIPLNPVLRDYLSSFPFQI

SOCS3 = target: T8, SOCS3 (Homo sapiens, UniProt O14543); conditions: for remaining activity at 10 µM: read-out: percent of DMSO vehicle control; for KD: dose-response
T8 construct: made in house; host or cells: HEK293 (transient transfection), unpurified extract
T8 sequence (O14543 1-225): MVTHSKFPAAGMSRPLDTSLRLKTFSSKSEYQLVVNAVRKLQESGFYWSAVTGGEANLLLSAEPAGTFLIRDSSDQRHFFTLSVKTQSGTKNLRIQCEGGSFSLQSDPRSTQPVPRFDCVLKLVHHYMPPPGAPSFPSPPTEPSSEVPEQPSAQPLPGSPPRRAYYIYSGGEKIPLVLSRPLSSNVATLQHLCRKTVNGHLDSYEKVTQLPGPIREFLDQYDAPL

Structure (SMILES)	Kd (TNS1)	Kd (TNS2)	remaining activity at 10 µM (BLNK)	percent of DMSO vehicle control at 10 µM (GRB7)	remaining activity at 10 µM (HCK)	remaining activity at 10 µM (LNK (SH2B3))	remaining activity at 10 µM (SOCS1)	remaining activity at 10 µM (SOCS3)	percent of DMSO vehicle control at 10 µM (TNS1)	remaining activity at 10 µM (TNS2)	remaining activity at 10 µM (BLNK; primary screen, 10 μM)	remaining activity at 10 µM (GRB7; primary screen, 10 μM)	remaining activity at 10 µM (HCK; primary screen, 10 μM)	remaining activity at 10 µM (LNK (SH2B3); primary screen, 10 μM)	remaining activity at 10 µM (SOCS1; primary screen, 10 μM)	KD (SOCS3)	remaining activity at 10 µM (SOCS3; primary screen, 10 μM)	remaining activity at 10 µM (TNS1; primary screen, 10 μM)	remaining activity at 10 µM (TNS2; primary screen, 10 μM)	other results
CC[C@H](C)[C@H](NC(=O)[C@H](CO)NC(=O)[C@H](CC(C)C)NC(=O)[C@H](CCCNC(=N)N)NC(=O)[C@H](CO)NC(=O)[C@H](CS)NC(C)=O)C(=O)N[C@@H](Cc1ccc(OP(=O)(O)O)cc1)C(=O)N[C@@H](CC(=O)O)C(=O)N[C@@H](CC(N)=O)C(=O)N[C@H](C(=O)N1CCC[C@H]1C(=O)NCC(N)=O)C(C)C [Ac-CSRLSIpYDNVPG-NH2] (Ac-CSRLSI[pY]DNVPG-NH2)	1350 ± 530 nM	466 ± 450 nM																		
CC[C@H](C)[C@H](NC(=O)[C@H](CCC(=O)O)NC(=O)[C@H](CCC(=O)O)NC(=O)[C@H](Cc1ccc(OP(=O)(O)O)cc1)NC(C)=O)C(=O)N[C@@H](CCC(=O)O)C(N)=O [Ac-pYEEIE-NH2] (Ac-[pY]EEIE-NH2)																				percent of DMSO vehicle control (BLNK; primary screen, 10 μM): 118.9%; percent of DMSO vehicle control (GRB7; primary screen, 10 μM): 123.8%; percent of DMSO vehicle control (HCK; primary screen, 10 μM): 82.2%; percent of DMSO vehicle control (LNK (SH2B3); primary screen, 10 μM): 72.0%; percent of DMSO vehicle control (SOCS1; primary screen, 10 μM): 128.1%; percent of DMSO vehicle control (SOCS3; primary screen, 10 μM): 149.7%; percent of DMSO vehicle control (TNS1; primary screen, 10 μM): 161.1%; percent of DMSO vehicle control (TNS2; primary screen, 10 μM): 104.0%
CC(=O)N[C@@H](Cc1ccc(CP(=O)(O)O)cc1)C(=O)NC1(C(=O)N[C@@H](CC(N)=O)C(=O)NCCCc2c(O)ccc3ccccc23)CCCCC1 [CGP78850]	408 nM	1200 nM	117 ± 7.1%	0%	60 ± 12.1%	79.1 ± 5.6%	129 ± 11.7%	116 ± 4.4%	16.4 ± 0.3%	16%										Kd (GRB7): 5.2 nM
CC[C@H](C)[C@H](NC(=O)[C@H](CCC(=O)O)NC(=O)[C@H](CCC(=O)O)NC(=O)[C@H](Cc1ccc(OP(=O)(O)O)cc1)NC(=O)/C=C/c1ccc(O)c(O)c1)C(=O)N[C@@H](CCC(=O)O)C(=O)O [Caffeic acid-pYEEIE] (Caffeoyl-[pY]EEIE-OH)	3800 ± 610 nM	4300 ± 2500 nM	3.2 ± 0.6%	0.2 ± 0.1%	0%	0.4 ± 0.1%	1.1 ± 0.1%	5.3 ± 0.3%	25.5 ± 1.1%	4.8 ± 1.3%										Kd (BLNK): 240 ± 24 nM; Kd (GRB7): 6100 ± 320 nM; Kd (HCK): 6 ± 0.97 nM; Kd (LNK (SH2B3)): 500 ± 410 nM; Kd (SOCS1): 30 ± 6.5 nM; Kd (SOCS3): 1800 ± 2000 nM
O=C(CCl)Nc1cccc(CNC(=O)[C@H](Cc2ccc(OP(=O)(O)O)cc2)NC(=O)Cc2ccc(F)cc2)c1 [MN551]											101%	71.3 ± 3.5%	92.7%	17.7 ± 5.5%	38.1 ± 7.5%	No Hit	24.4%	134%	74.1 ± 2.1%	Kd (LNK (SH2B3); dose-response, read-out: KD): 3900 ± 710 nM
NC(=O)CC[C@H](NC(=O)[C@@H]1CC[C@@H]2CCN(C(=O)CCCCCC#Cc3cccc4c3CN(C3CCC(=O)NC3=O)C4=O)C[C@H](NC(=O)c3cc4cc(C(F)(F)P(=O)(O)O)ccc4[nH]3)C(=O)N21)C(=O)NC(c1ccccc1)c1ccccc1 (stereo partly drawn) [SD-36]			104%	66.9 ± 4.6%	56.4 ± 3.2%	86.6%	132 ± 8.8%	100 ± 1.2%	112.9 ± 1%	65.4 ± 3.3%										
CC(=O)N1CC[C@H]2CC[C@@H](C(=O)N[C@@H](CCC(N)=O)C(=O)NC(c3ccccc3)c3ccccc3)N2C(=O)[C@@H](NC(=O)c2cc3cc(C(F)(F)P(=O)(O)O)ccc3[nH]2)C1 [SI-109]			117%	135%	91.9%	81.4 ± 6.7%	103%	153%	152%	126%										
C/C(=C\C(=O)N[C@H](C(=O)N1CCC[C@H]1C(=O)N(c1ccccc1)c1ccc(I)cc1)C(C)(C)C)c1ccc(OP(=O)(O)O)cc1 [STAT6-IN-1]											116 ± 19.9%	47.7 ± 4.2%	48.8 ± 5.2%	6.9 ± 3.8%	98.5 ± 3.5%	No Hit	39.3 ± 22.1%	87.6 ± 10%	55.9 ± 0.4%	Kd (LNK (SH2B3); dose-response, read-out: KD): 2300 ± 140 nM
CC(C)(C)[C@H](NC(=O)/C=C/c1ccc(OP(=O)(O)O)cc1)C(=O)N1CCC[C@H]1C(=O)N(c1ccccc1)c1ccc(I)cc1 [STAT6-IN-3]											145 ± 22.5%	81.2 ± 4.6%	77.4 ± 4.3%	62 ± 5.7%	95.9 ± 35.6%	No Hit	52.6 ± 50.6%	88.4 ± 24.5%	86.8 ± 7.1%	
O=C(COc1ccc2cc(C(=O)Nc3ccccc3)ccc2c1)NCc1ccc(OP(=O)(O)O)c(OP(=O)(O)O)c1 [Stafib-1]											158%	57.9 ± 22.2%	77 ± 19.3%	94.8 ± 14.4%	156%		72.7 ± 29%	132%	86 ± 8.8%	
